Experimental data published in patent US8546391B2, “Thiadiazole and oxadiazole derivatives, preparation thereof and therapeutic use thereof” (Sanofi, priority 2009, dated 2013).

Experiments:
[1] = system: triglyceride biosynthesis; test: in vitro inhibitory activity on triglyceride biosynthesis, cell test ([14C] glycerol incorporation in Chang liver cells); type: cell-based; details: compounds incubated 30 minutes, then [14C] glycerol incorporation for 6 hours, read-out: inhibitory activity on triglyceride biosynthesis, concentration that inhibits 50% of the activity
Description: These trials consisted in measuring the in vitro inhibitory activity of the compounds of the invention on a cell test.
Chang liver cells at 80% confluence are detached with trypsin-EDTA, 4 ml per 175 cm^2 flask. After centrifugation at 1300×g for 5 minutes, the cell pellet is washed once with PBS and then resuspended in whole medium. The number of cells and their viability are determined on Mallassez cells via the exclusion method with trypan blue.
150 000 cells are inoculated per well into a 24-well plate for a minimum of 3 hours in DMEM medium 4.5 g/l of glucose supplemented with 10% FCS and with antibiotics, and are maintained at 37° C. in an incubator with CO2 (5%).
After 3 hours, the cells have adhered, the medium is removed and replaced overnight with DMEM medium 4.5 g/l of glucose with 2% of BSA/oleate.
After culturing for 18 hours without serum, the test compounds are incubated for 30 minutes ([…], 30, 100, 300 and 1000 nM) with the cells, followed by addition of [^14C] glycerol (0.4 μCi/ml/well) for an incorporation time of 6 hours.
The supernatant is drawn off and the cells are recovered by treatment with trypsin-EDTA, 100 μl/well, for 5 minutes at 37° C. This cell suspension is then recovered in an Eppendorf tube and is washed with twice 500 μl of PBS. The centrifugation at 1300×g for 5 minutes allows recovery of the cell pellets, which may be frozen at −20° C. In order to extract the lipids from the cell pellet, 400 μl of a methanol/dichloromethane/trifluoroacetic acid mixture (50/50/0.1%) is used to resuspend the cells. Next, the cell membranes are destroyed by sonication on a water bath, for 30 minutes. The samples are filtered through a 0.45 μm filtered and then injected onto a C18 HPLC column of 4.6×75 mm, 3 μm with a mobile phase of 5% (H2O+0.1% TFA), 70% methanol, 25% dichloromethane, with a flow rate of 1.5 ml/minute. The radioactivity is measured using a Flo One C625TR machine (Perkin-Elmer).
The inhibitory activity on triglyceride biosynthesis is given by the concentration that inhibits 50% of the activity.

SMILES | IC50 [1] [nM] | melting point [°C]
O=C(O)C[C@H]1CC[C@H](c2ccc(C(=O)Nc3nnc(COCC4CCCC4)s3)cc2)CC1 [Compound 40, trans-{4-[4-(5-cyclopentylmethoxymethyl[1,3,4]thiadiazol-2-ylcarbamoyl)phenyl]cyclohexyl}acetic acid] | 51 | 241
O=C(Nc1nnc(Cc2cccc(Cl)c2)s1)c1ccc(O[C@H]2CC[C@@H](C(=O)O)CC2)nc1 [Compound 63, cis-4-{5-[5-(3-chlorobenzyl)[1.3.4]thiadiazol-2-ylcarbamoyl]pyridin-2-yloxy}cyclohexanecarboxylic acid] | 85 | –
O=C(Nc1nnc(Cc2ccccc2)s1)c1ccc(N[C@H]2CC[C@@H](C(=O)O)CC2)cc1 [Compound 68, cis-4-[4-(5-benzyl[1.3.4]thiadiazol-2-ylcarbamoyl)phenylamino]cyclohexanecarboxylic acid] | 271 | –
